Laboratory results from BigSolDB 2.1.

CC(C)COc1ccccc1B(O)O
Details	solubility (mole fraction)
in 3-pentanone, 295.65 K	0.301
in 3-pentanone, 296.55 K	0.288
in 3-pentanone, 297.65 K	0.304
in 3-pentanone, 298.55 K	0.324
in 3-pentanone, 300.65 K	0.306
in 3-pentanone, 300.85 K	0.322
in 3-pentanone, 302.55 K	0.322
in 3-pentanone, 303.05 K	0.338
in 3-pentanone, 305.35 K	0.356
in 3-pentanone, 306.05 K	0.342
in 3-pentanone, 308.35 K	0.362
in 3-pentanone, 309.05 K	0.378
in 3-pentanone, 312.05 K	0.376
in 3-pentanone, 312.25 K	0.396
in 3-pentanone, 313.85 K	0.426
in 3-pentanone, 318.15 K	0.407
in 3-pentanone, 318.85 K	0.444
in 3-pentanone, 319.15 K	0.478
in 3-pentanone, 319.55 K	0.455
in 3-pentanone, 322.55 K	0.482
in 3-pentanone, 324.85 K	0.503
in 3-pentanone, 325.55 K	0.526
in 3-pentanone, 328.85 K	0.547
in 3-pentanone, 331.25 K	0.609
in 3-pentanone, 337.25 K	0.67
in 3-pentanone, 345.35 K	0.766
in acetone, 293.65 K	0.281
in acetone, 300.35 K	0.314
in acetone, 303.65 K	0.339
in acetone, 309.35 K	0.372
in acetone, 315.65 K	0.411
in acetone, 320.75 K	0.467
in acetone, 327.35 K	0.533
in acetone, 333.95 K	0.611
in acetone, 337.75 K	0.639
in acetone, 341.35 K	0.695
in acetone, 344.45 K	0.737
in acetone, 347.75 K	0.8
in acetone, 350.55 K	0.823
in acetone, 353.65 K	0.872
in acetone, 355.75 K	0.901
in chloroform, 295.15 K	0.277
in chloroform, 299.15 K	0.307
in chloroform, 304.45 K	0.338
in chloroform, 308.15 K	0.361
in chloroform, 313.15 K	0.402
in chloroform, 317.65 K	0.432
in chloroform, 320.65 K	0.465
in chloroform, 325.75 K	0.514
in chloroform, 328.65 K	0.547
in chloroform, 335.05 K	0.618
in chloroform, 336.15 K	0.637
in chloroform, 341.15 K	0.7
in chloroform, 344.75 K	0.715
in chloroform, 348.45 K	0.774
in chloroform, 350.25 K	0.822
in chloroform, 352.15 K	0.866
in chloroform, 355.15 K	0.895
in dipropyl ether, 294.15 K	0.157
in dipropyl ether, 300.35 K	0.185
in dipropyl ether, 304.35 K	0.209
in dipropyl ether, 311.05 K	0.259
in dipropyl ether, 316.45 K	0.305
in dipropyl ether, 320.15 K	0.345
in dipropyl ether, 325.05 K	0.405
in dipropyl ether, 329.15 K	0.446
in dipropyl ether, 330.15 K	0.463
in dipropyl ether, 332.15 K	0.499
in dipropyl ether, 335.05 K	0.532
in dipropyl ether, 338.65 K	0.606
in dipropyl ether, 340.75 K	0.641
in dipropyl ether, 345.65 K	0.73
in dipropyl ether, 348.75 K	0.764
in dipropyl ether, 351.65 K	0.813
in dipropyl ether, 353.05 K	0.857
in methylcyclohexane, 300.05 K	0.0138
in methylcyclohexane, 305.15 K	0.0169
in methylcyclohexane, 305.85 K	0.0208
in methylcyclohexane, 309.15 K	0.0262
in methylcyclohexane, 312.25 K	0.0333
in methylcyclohexane, 315.55 K	0.046
in methylcyclohexane, 318.15 K	0.0589
in methylcyclohexane, 321.95 K	0.0885
in methylcyclohexane, 323.35 K	0.103
in methylcyclohexane, 324.35 K	0.118
in methylcyclohexane, 325.95 K	0.139
in methylcyclohexane, 327.05 K	0.163
in methylcyclohexane, 329.05 K	0.198
in methylcyclohexane, 331.25 K	0.21
in methylcyclohexane, 331.85 K	0.236
in methylcyclohexane, 332.95 K	0.253
in methylcyclohexane, 334.95 K	0.328
in methylcyclohexane, 336.05 K	0.354
in methylcyclohexane, 336.95 K	0.371
in methylcyclohexane, 340.05 K	0.479
in methylcyclohexane, 343.75 K	0.567
in methylcyclohexane, 344.45 K	0.628
in methylcyclohexane, 349.15 K	0.731

CC(C)COc1cccc(B(O)O)c1
Details	solubility (mole fraction)
in 3-pentanone, 303.65 K	0.191
in 3-pentanone, 307.15 K	0.204
in 3-pentanone, 314.15 K	0.233
in 3-pentanone, 318.75 K	0.258
in 3-pentanone, 335.65 K	0.289
in 3-pentanone, 339.15 K	0.329
in 3-pentanone, 343.15 K	0.354
in 3-pentanone, 348.15 K	0.396
in 3-pentanone, 351.15 K	0.443
in 3-pentanone, 353.65 K	0.488
in chloroform, 297.15 K	0.018
in chloroform, 302.65 K	0.0229
in chloroform, 306.65 K	0.0278
in chloroform, 310.25 K	0.0327
in chloroform, 313.95 K	0.0408
in chloroform, 318.35 K	0.0507
in chloroform, 323.05 K	0.067
in chloroform, 328.55 K	0.0899
in chloroform, 331.75 K	0.131
in chloroform, 333.25 K	0.19
in dipropyl ether, 298.65 K	0.103
in dipropyl ether, 302.95 K	0.116
in dipropyl ether, 305.15 K	0.126
in dipropyl ether, 308.45 K	0.137
in dipropyl ether, 312.15 K	0.155
in dipropyl ether, 314.65 K	0.172
in dipropyl ether, 319.75 K	0.198
in dipropyl ether, 323.45 K	0.232
in dipropyl ether, 329.95 K	0.275
in dipropyl ether, 333.95 K	0.34
in methylcyclohexane, 305.95 K	0.0033
in methylcyclohexane, 308.45 K	0.0049
in methylcyclohexane, 309.95 K	0.0065
in methylcyclohexane, 315.75 K	0.0082
in methylcyclohexane, 318.65 K	0.0147
in methylcyclohexane, 322.65 K	0.0343
in methylcyclohexane, 325.25 K	0.0556
in methylcyclohexane, 327.05 K	0.0817
in methylcyclohexane, 329.65 K	0.132
in methylcyclohexane, 331.75 K	0.154

CC(C)COc1ccc(B(O)O)cc1
Details	solubility (mole fraction)
in 3-pentanone, 294.65 K	0.114
in 3-pentanone, 298.65 K	0.128
in 3-pentanone, 303.75 K	0.146
in 3-pentanone, 307.25 K	0.172
in 3-pentanone, 309.35 K	0.187
in 3-pentanone, 313.65 K	0.205
in 3-pentanone, 317.65 K	0.232
in 3-pentanone, 325.55 K	0.265
in 3-pentanone, 331.35 K	0.31
in 3-pentanone, 334.65 K	0.335
in 3-pentanone, 339.65 K	0.367
in 3-pentanone, 349.65 K	0.411
in acetone, 294.45 K	0.127
in acetone, 296.85 K	0.132
in acetone, 299.75 K	0.139
in acetone, 304.75 K	0.149
in acetone, 309.45 K	0.16
in acetone, 312.25 K	0.171
in acetone, 318.75 K	0.19
in acetone, 322.55 K	0.204
in acetone, 325.35 K	0.218
in chloroform, 296.25 K	0.0212
in chloroform, 299.95 K	0.0253
in chloroform, 303.65 K	0.0304
in chloroform, 308.65 K	0.0367
in chloroform, 309.65 K	0.0415
in chloroform, 310.85 K	0.0471
in chloroform, 312.65 K	0.0555
in chloroform, 316.35 K	0.0668
in chloroform, 319.65 K	0.0785
in chloroform, 322.35 K	0.0936
in chloroform, 328.75 K	0.115
in chloroform, 334.25 K	0.146
in chloroform, 338.65 K	0.202
in chloroform, 338.75 K	0.183
in chloroform, 343.15 K	0.254
in chloroform, 346.65 K	0.279
in chloroform, 352.65 K	0.324
in chloroform, 353.85 K	0.335
in dipropyl ether, 296.65 K	0.0352
in dipropyl ether, 303.15 K	0.0416
in dipropyl ether, 308.15 K	0.0497
in dipropyl ether, 308.45 K	0.0587
in dipropyl ether, 312.65 K	0.0705
in dipropyl ether, 315.65 K	0.082
in dipropyl ether, 320.15 K	0.0995
in dipropyl ether, 325.55 K	0.128
in dipropyl ether, 330.05 K	0.165
in dipropyl ether, 333.15 K	0.196
in dipropyl ether, 336.65 K	0.229
in dipropyl ether, 339.45 K	0.261
in dipropyl ether, 344.15 K	0.314
in dipropyl ether, 348.65 K	0.345
in methylcyclohexane, 318.55 K	0.0096
in methylcyclohexane, 323.65 K	0.0191
in methylcyclohexane, 328.45 K	0.03
in methylcyclohexane, 334.75 K	0.0514
in methylcyclohexane, 343.55 K	0.118
in methylcyclohexane, 344.65 K	0.204
in methylcyclohexane, 345.55 K	0.266
in methylcyclohexane, 350.95 K	0.322
